# Measurements published in patent US8012944B2, “Method for treating cancer using IAP antisense oligomer and chemotherapeutic agent” (Pharmascience Inc., priority 2003, dated 2011).
# What was measured:
# H460 tumors = assay: Histopathology and ubiquitin immunohistochemistry of H460 tumors; assay type: in vivo, SCID-RAG2 mice; conditions: 15 mg/kg; day 21 or 24
# Description: To evaluate whether XIAP AS oligonucleotide administration results in direct tumor cell kill, we examined the histology of tumors after treatment both for morphology and ubiquitin immunostaining (FIGS. 19A and 19B). At day 21 or 24 post-tumor inoculation, tumors treated with 15 mg/kg of G4 AS oligonucleotides, SC oligonucleotides, or saline control were excised, sectioned, and stained with hematoxylin and eosin.
# The degradation of proteins is largely ubiquitin-proteasome-dependent; increased ubiquitin expression has been observed during apoptosis. Thus, we examined the ubiquitin expression in the tumors sections used for hematoxylin and eosin staining.
# Mouse tumors were collected on day 21 or 24 post-tumor inoculation and treatment. One portion of the tumor tissue was fixed in formalin. Paraffin-embedded tissues were sectioned and subjected to gross histopathology using hematoxylin and eosin staining and immunohistochemistry for ubiquitin expression. The other portion of the tumor was homogenized in lysis buffer for western blot analysis (see above).
# H460 cells = assay: Apoptotic flow cytometric assay (PI staining, hypo-diploid DNA content); assay type: cell-based, human; conditions: 1.2 μM, untreated control 16.6%
# Description: Cells were treated with liposome-oligonucleotide complexes for 4.5 h, and incubated for another 48 h in the medium without transfection reagent at 37° C. Following incubation, cells were harvested, washed twice with sample buffer (0.5% glucose in PBS without Ca^++ and Mg^++), and fixed in cold 70% ethanol at 4° C. for at least 18 hrs. Samples were centrifuged at 3000 rpm for 10 min, then resuspended in sample buffer containing 50 μg/ml propidium iodide (PI) and 400 U/ml RNase A. Samples were incubated for 30 min at room temperature and 30 min on ice, followed by flow cytometry analysis. EXPO Software (Applied Cytometry Systems, Sacramento, Calif.) was used to generate histograms, which were used to determine the cell cycle phase distribution after debris exclusion. The Sub G1/G0 cell fraction was considered as representative for apoptotic cells.
# XIAP mRNA = XIAP mRNA knock-down in H460 cells (real-time RT-PCR / TaqMan); assay type: cell-based, human; conditions: real-time PCR, 1.2 μM, 6 hours of transfection (FIG. 6)
# In short: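 NCI-H460 cells transfected with phosphorothioate antisense oligonucleotides via Lipofectamine 2000; RNA isolated after 6 h treatment. XIAP mRNA quantified by one-step TaqMan real-time RT-PCR, comparative Ct (threshold 30× baseline SD), normalized to GAPDH and expressed relative to untreated control cells.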
sequence,measurement,setting,value
GCTGAGTCTCCATATTGCC [G4 AS] (chemistry not given here),tumor histology (hematoxylin and eosin),H460 tumors,increased number of dead cells
same,hypo-diploid DNA content of cells,H460 cells,40.8%
same,reduction of XIAP mRNA level compared to untreated control,XIAP mRNA,55%
